Results from ChEMBL document CHEMBL6120969, “Distinctive Immune Signatures Driven by Structural Alterations in Desmuramylpeptide NOD2 Agonists” (J Med Chem, 2024).
The source made the active and inactive calls. The calls are words filed in the database; no cut-off is given here.

Key:
PBMC [1] = test: Immunomodulatory activity in human PBMC cells assessed as increase in IL-17A level at 2 uM incubated for 18 hrs y flow cytometry analysis; type: functional, cell-based
Method in brief: (§1)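 Human donor PBMCs were isolated with Ficoll-Paque, seeded at 1 × 10^6 cells/mL (500 μL) in 48-well plates, and exposed to compounds at 2 μM or to 0.1% DMSO vehicle without LPS for 18 h at 37 °C, 5% CO2. Cytokines in the cell-free supernatants were then quantified on a flow cytometer with the LEGENDplex Human Essential Immune Response Panel, read against the kit's recombinant standard curves. Data came from four independent replicates and were analysed by two-way ANOVA with Tukey's test.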

BMDC [2] = test: Adjuvant activity in OVA-immunized C57BL/6J mouse BMDC cells co-cultured with mouse CD4+ T cells assessed as increase in IL-6 production at 10 uM incubated for 18 hrs by flow cytometry analysis; type: functional, cell-based
BMDC [3] = test: Adjuvant activity in OVA-immunized C57BL/6J mouse BMDC cells co-cultured with mouse CD4+ T cells assessed as increase in IL-9 level at 10 uM incubated for 18 hrs; type: functional, cell-based
[4] = Cytotoxicity against human HEK-Blue hNOD2 cells assessed as metabolic activity at 10 uM incubated for 18 hes by MTT assay; type: toxicity, cell-based; conditions: hek-blue hnod2, 10 µM
[5] = Cytotoxicity against human PBMC cells at 10 uM incubated for 4 hrs; type: toxicity, cell-based
Method in brief: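 Human PBMCs alone were exposed to compounds at 10 μM (vehicle 0.1% DMSO) in parallel with a K562 killing assay. They were then stained with Sytox blue dead cell stain and analysed on an Attune NxT flow cytometer with FlowJo. Direct cytotoxicity was read as Sytox blue-positive cells. Duplicates, three independent biological replicates; one-way ANOVA with Dunnett's test.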

BMDC [6] = test: Adjuvant activity in OVA-immunized C57BL/6J mouse BMDC cells co-cultured with mouse CD4+ T cells assessed as increase in IL-2 level at 10 uM incubated for 18 hrs; type: functional, cell-based
PBMC [7] = test: Immunomodulatory activity in human PBMC cells assessed as increase in TNF-alpha level at 2 uM incubated for 18 hrs y flow cytometry analysis; type: functional, cell-based; method in brief: as §1
PBMC [8] = test: Immunomodulatory activity in human PBMC cells assessed as increase in MCP-1 level at 2 uM incubated for 18 hrs y flow cytometry analysis; type: functional, cell-based; method in brief: as §1
PBMC [9] = test: Immunomodulatory activity in human PBMC cells assessed as increase in LPS-induced IP-10 level at 2 uM incubated for 18 hrs y flow cytometry analysis; type: functional, cell-based
Method in brief: (§2)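 With LPS at 10 ng/mL present, human donor PBMCs (1 × 10^6 cells/mL, 500 μL, 48-well plates) were incubated for 18 h at 37 °C, 5% CO2 with compounds at 2 μM or with 0.1% DMSO. Supernatant cytokines were then determined with a LEGENDplex multiplex panel read by flow cytometry against kit recombinant standards, and four independent replicates were assessed by two-way ANOVA with Tukey's test.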

PBMC [10] = test: Immunomodulatory activity in human PBMC cells assessed as increase in LPS-induced IL-12p70 level at 2 uM incubated for 18 hrs y flow cytometry analysis; type: functional, cell-based
[11] = Anti-inflammatory activity in human PBMC cells assessed as increase in percentage of non classical monocytes at 10 uM incubated for 18 hrs by flow cytometry analysis; type: functional
PBMC [12] = test: Immunomodulatory activity in human PBMC cells assessed as increase in IL-1beta level at 2 uM incubated for 18 hrs y flow cytometry analysis; type: functional, cell-based; method in brief: as §1
PBMC [13] = test: Immunomodulatory activity in human PBMC cells assessed as increase in IP-10 level at 2 uM incubated for 18 hrs y flow cytometry analysis; type: functional, cell-based; method in brief: as §1
BMDC [14] = test: Adjuvant activity in OVA-immunized C57BL/6J mouse BMDC cells assessed as increase in CD4+ T cell activation incubated for 18 hrs; type: functional, cell-based
Method in brief: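 Dendritic cells were derived from C57BL/6 mouse bone marrow by 7 days of culture with GM-CSF, then pretreated for 18 h with compounds at 10 μM together with 50 μg/mL ovalbumin and washed. These cells (1 × 10^4/well) were co-cultured with 5 × 10^4 CFSE-labelled OT II CD4+ T cells for 72 h at 37 °C in 5% CO2. T-cell activation was assessed by flow cytometry on live Thy1.2+/CD4+ cells, using CFSE dilution and CD25 expression as readouts. Assays were run in duplicate across two independent biological replicates and analysed with paired t tests.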

PBMC [15] = test: Immunomodulatory activity in human PBMC cells assessed as increase in LPS-induced IL-1beta level at 2 uM incubated for 18 hrs y flow cytometry analysis; type: functional, cell-based
PBMC [16] = test: Immunomodulatory activity in human PBMC cells assessed as increase in LPS-induced IFN-gamma level at 2 uM incubated for 18 hrs y flow cytometry analysis; type: functional, cell-based
[17] = Anti-inflammatory activity in human PBMC cells assessed as increase in percentage of classical monocytes at 10 uM incubated for 18 hrs by flow cytometry analysis; type: functional
PBMC [18] = test: Immunomodulatory activity in human PBMC cells assessed as increase in IL-2 level at 2 uM incubated for 18 hrs y flow cytometry analysis; type: functional, cell-based; method in brief: as §1
PBMC [19] = test: Immunomodulatory activity in human PBMC cells assessed as increase in LPS-induced MCP-1 level at 2 uM incubated for 18 hrs y flow cytometry analysis; type: functional, cell-based; method in brief: as §2
PBMC [20] = test: Immunomodulatory activity in human PBMC cells assessed as increase in IFN-gamma level at 2 uM incubated for 18 hrs y flow cytometry analysis; type: functional, cell-based; method in brief: as §1
PBMC [21] = test: Immunomodulatory activity in human PBMC cells assessed as increase in TGF-beta1 level at 2 uM incubated for 18 hrs y flow cytometry analysis; type: functional, cell-based; method in brief: as §1
PBMC [22] = test: Immunomodulatory activity in human PBMC cells assessed as increase in LPS-induced TNF-alpha level at 2 uM incubated for 18 hrs y flow cytometry analysis; type: functional, cell-based
PBMC [23] = test: Immunomodulatory activity in human PBMC cells assessed as increase in IL-10 level at 2 uM incubated for 18 hrs y flow cytometry analysis; type: functional, cell-based; method in brief: as §1
PBMC [24] = test: Immunomodulatory activity in human PBMC cells assessed as increase in LPS-induced IL-10 level at 2 uM incubated for 18 hrs y flow cytometry analysis; type: functional, cell-based; method in brief: as §2
PBMC [25] = test: Immunomodulatory activity in human PBMC cells assessed as increase in IL-6 level at 2 uM incubated for 18 hrs y flow cytometry analysis; type: functional, cell-based; method in brief: as §1
BMDC [26] = test: Adjuvant activity in OVA-immunized C57BL/6J mouse BMDC cells co-cultured with mouse CD8+ T cells assessed as increase in IL-9 production at 10 uM incubated for 18 hrs by flow cytometry analysis; type: functional, cell-based
PBMC [27] = test: Immunomodulatory activity in human PBMC cells assessed as increase in IL-4 level at 2 uM incubated for 18 hrs y flow cytometry analysis; type: functional, cell-based; method in brief: as §1
PBMC [28] = test: Immunomodulatory activity in human PBMC cells assessed as increase in IL-8 level at 2 uM incubated for 18 hrs y flow cytometry analysis; type: functional, cell-based; method in brief: as §1
PBMC [29] = test: Cytotoxicity against human PBMC cells co-cultured with human K562 cells at 10 uM incubated for 4 hrs; type: functional, cell-based
Method in brief: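 Statistics used one-way ANOVA with Dunnett's test on duplicate wells from three independent biological replicates. In 96-well plates, 4 × 10^5 human PBMCs per well were exposed to compounds at 10 μM for 18 h, with 0.1% DMSO as vehicle, and then to 1 × 10^4 CFSE-stained K562 cells per well (effector:target 40:1) for 4 h at 37 °C, 5% CO2. Killing was determined as the fraction of K562 cells staining for both CFSE and Sytox blue on an Attune NxT flow cytometer.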

PBMC [30] = test: Immunomodulatory activity in human PBMC cells assessed as increase in IL-12p70 level at 2 uM incubated for 18 hrs y flow cytometry analysis; type: functional, cell-based; method in brief: as §1
PBMC [31] = test: Immunomodulatory activity in human PBMC cells assessed as increase in LPS-induced IL-6 level at 2 uM incubated for 18 hrs y flow cytometry analysis; type: functional, cell-based; method in brief: as §2
[32] = Anti-inflammatory activity in human PBMC cells assessed as increase in percentage of intermediate monocytes at 10 uM incubated for 18 hrs by flow cytometry analysis; type: functional

CCOC(=O)CC[C@@H](NC(=O)[C@@H](NC(=O)CNC(=O)/C=C/c1ccc(OC(=O)CO[C@H]2CC[C@@]3(C)C(=CC[C@H]4[C@@H]5CC[C@H]([C@H](C)CCCC(C)C)[C@@]5(C)CC[C@@H]43)C2)c(OC)c1)C(C)C)C(=O)OCC
Activity (PBMC [1]): Active | Activity (BMDC [2]): Active | Activity (BMDC [3]): Active | Activity [4]: Non-toxic | Activity [5]: Moderate_effect | Activity (BMDC [6]): Active | Activity (PBMC [7]): Active | Activity (PBMC [8]): Active | Activity (PBMC [9]): Active | Activity (PBMC [10]): Active | Activity [11]: 76.6% | Activity (PBMC [12]): Active | Activity (PBMC [13]): Active | Activity (BMDC [14]): Active | Activity (PBMC [15]): Active | Activity (PBMC [16]): Active | Activity [17]: 0.35% | Activity (PBMC [18]): Active | Activity (PBMC [19]): Active | Activity (PBMC [20]): Active | Activity (PBMC [21]): Active | Activity (PBMC [22]): Active | Activity (PBMC [23]): Active | Activity (PBMC [24]): Active | Activity (PBMC [25]): Active | Activity (BMDC [26]): Active | Activity (PBMC [27]): Active | Activity (PBMC [28]): Active | Activity (PBMC [29]): Active | Activity (PBMC [30]): Active | Activity (PBMC [31]): Active | Activity [32]: 4.53%
